Laboratory results taken from patent US20200397332A1, “NON-INVASIVE METHOD AND DEVICE FOR DETERMINING DRUG CONCENTRATIONS IN BLOOD” (priority 2019, published 2020).

Legend:
[1] = caffeine: one cup of coffee (100 mg caffeine); alcohol: no sign of alcohol in blood; cited from earlier work
[2] = Din=50 mg caffeine; taken from known drug data; cited from earlier work
clinical [3] = settings: human, in vivo, po
Description: FIG. 6 is illustrative of the GM magnetic signal vs time at different pressures by adjusting the pressure applied by the pressure cuff 12 on the arm of the patient. Initially, the cuff pressure is zero and the GM signal is flat. After around 10 seconds, the cuff pressure is increased and after 20 seconds, the cuff pressure reaches approximately 120 mm Hg. […] The GM signal is almost flat from 20 seconds to 60 seconds because the flow of blood through the blood vessel is stopped. When the cuff pressure was released quickly at about 60 seconds, the GM signal returned to the level similar to the initial measurement. […] At the pressure of 120 mm Hg or greater there is, no arterial blood flow and no electrical current. The difference of two levels in the beginning and around 60 seconds gives the absolute value of the magnetic field which is detected by the GM sensor. […]
Basic data for the detected drugs includes the initial dosages of the drug Din which depend on the maximum concentration Cmax in blood at a certain time Tmax. […] The absolute value of the drug concentration is determined based on the measured signal Vs and time Tmax at which the concentration of drug is detected at a maximum value in the blood stream.
The signal Vs was measured at different times after ingestion of the caffeine to verify the time dependence of the drug concentration in blood. […]

clinical [4] = settings: human, in vivo, po; remark: listed apart in the source
Experimental: The Tmax can be identified from this dependence.
FIG. 11 is illustrative of the relative change in charge of the ions inside the arterial blood stream vs time after ingesting 500 mg of acetaminophen. […] The Tmax can be identified from this graph, and is detected as being approximately 30 min.
The initial dosage is Din is ˜500 mg of acetaminophen. The maximum drug concentration in arterial blood stream is 60 mg/L at Din=500 mg ([…]) and Tmax˜30 min from the measurements from the GM sensor.
Vs. The next step is to calculate (Vs0−Vs)0.

[5] = Din=500 mg acetaminophen; taken from known drug data; cited from earlier work

| Compound | time after which the level in blood has declined to zero [1] | Cmax, maximum drug concentration in the arterial blood stream [2] | Tmax (clinical [3]) [h] | Tmax (clinical [4]) [h] | Cmax, maximum drug concentration in arterial blood stream [5] [µg/mL] |
| --- | --- | --- | --- | --- | --- |
| CCO [alcohol] | about 12 hours |  |  |  |  |
| Cn1c(=O)c2c(ncn2C)n(C)c1=O [caffeine] | about 4 hours | about 1 mg/L | ~2 |  |  |
| CC(=O)Nc1ccc(O)cc1 [acetaminophen] |  |  |  | ~0.5 | 60 |
